According to patent US20150152083A1, “Compounds and Compositions for Modulating EGFR Activity” (IRM LLC, A Delaware Limited Liability Company, priority 2012, published 2015):

How the values were obtained:
EGFR (L858R) = molecular target: T1, EGFR (L858R) (Homo sapiens, UniProt P00533, L858R); experiment: EGFR target modulation in engineered NIH3T3 cell lines (phospho-EGFR AlphaLISA); type: cell-based; conditions: NIH3T3 cells expressing human EGFR L858R; 3 hours compound
T1 construct: host or cells: NIH3T3
T1 sequence (P00533 25-1210 L858R): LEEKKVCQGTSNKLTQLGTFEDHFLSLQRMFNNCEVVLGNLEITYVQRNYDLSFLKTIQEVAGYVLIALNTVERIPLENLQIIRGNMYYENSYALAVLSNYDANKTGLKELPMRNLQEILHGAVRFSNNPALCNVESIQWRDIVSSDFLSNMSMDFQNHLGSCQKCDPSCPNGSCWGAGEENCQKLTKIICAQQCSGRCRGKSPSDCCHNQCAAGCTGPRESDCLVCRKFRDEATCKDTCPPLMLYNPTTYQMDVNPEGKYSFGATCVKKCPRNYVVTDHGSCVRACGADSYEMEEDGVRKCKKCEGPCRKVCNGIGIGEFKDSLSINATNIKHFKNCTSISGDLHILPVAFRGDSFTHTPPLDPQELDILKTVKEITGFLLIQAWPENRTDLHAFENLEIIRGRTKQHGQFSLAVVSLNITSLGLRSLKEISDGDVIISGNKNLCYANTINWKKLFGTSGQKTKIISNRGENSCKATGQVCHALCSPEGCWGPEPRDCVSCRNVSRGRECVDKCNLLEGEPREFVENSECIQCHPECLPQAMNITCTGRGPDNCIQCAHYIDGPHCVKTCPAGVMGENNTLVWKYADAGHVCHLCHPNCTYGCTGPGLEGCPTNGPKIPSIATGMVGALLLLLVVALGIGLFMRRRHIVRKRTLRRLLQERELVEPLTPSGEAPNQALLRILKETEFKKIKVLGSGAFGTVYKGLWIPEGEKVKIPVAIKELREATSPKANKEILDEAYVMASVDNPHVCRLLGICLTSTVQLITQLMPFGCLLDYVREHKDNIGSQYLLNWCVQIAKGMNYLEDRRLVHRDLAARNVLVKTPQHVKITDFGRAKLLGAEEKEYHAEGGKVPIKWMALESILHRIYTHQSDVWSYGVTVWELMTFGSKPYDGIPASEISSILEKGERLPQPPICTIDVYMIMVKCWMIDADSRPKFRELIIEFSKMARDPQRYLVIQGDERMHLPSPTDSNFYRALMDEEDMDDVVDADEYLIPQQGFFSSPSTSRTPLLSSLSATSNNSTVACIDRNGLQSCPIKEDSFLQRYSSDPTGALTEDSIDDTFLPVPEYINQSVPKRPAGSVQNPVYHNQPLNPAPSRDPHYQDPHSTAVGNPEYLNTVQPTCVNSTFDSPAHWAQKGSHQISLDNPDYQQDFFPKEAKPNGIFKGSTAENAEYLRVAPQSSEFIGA
Procedure: (§1) EGFR Target Modulation in Engineered NIH3T3 Cell Lines
(§2) NIH3T3 cell lines expressing human EGFR (WT, L858R, and L858RT790M) (obtained from Matthew Meyerson's Lab at DFCI) were maintained in 10% FBS/DMEM supplemented with 100 μg/ml Penicillin/Streptomycin (Hyclone #SV30010) and 2 μg/ml Puromycin. The cells were harvested with 0.05% Trypsin/EDTA (Hyclone #SH30236.01), re-suspended in 5% FBS/DMEM Pen/Strep without Puromycin and plated at 9,000 cells per well in 50 μl of media in a 384-well black plate with clear bottoms (Greiner #789068G). The cells were allowed to incubate overnight in a 37° C., 5% CO2 humidified tissue culture incubator. A 12-point test compound curve was prepared by serial diluting a 10 μM stock 1:3 in DMSO in a 384-well compound plate (Greiner #789201L). The serial diluted compounds were transferred to the plate containing cells by using a 50 nl Pin Head device (Perkin Elmer) and the cells were placed back in the incubator for 3 hours. Only the EGFR WT-expressing cells were induced with 50 ng/ml EGF (Preprotech #AF-100-15) for 5 minutes before lysis. The media was removed and cells were lysed in 25 μl of Lysis buffer containing protease and phosphatase inhibitors (1% Triton X-100, 20 mM Tris, pH 7.5, 1 mM EDTA, 1 mM EGTA, 150 mM NaCl, 1× complete cocktail inhibitor (Roche #11 697 498 001), 1× Phosphatase Inhibitor Cocktail Set II and Set III (Sigma #P5726 and #P0044)). The plates were shaken at 4° C. for 5 minutes with foil top at maximum speed. An aliquot of 5 μl from each well was transferred to ProxiPlate™ 384-well Plus plates (PE #6008289). The plates were sealed with a foil top and frozen at −80° C. and thawed when needed.
(§3) The frozen aliquots were thawed and briefly centrifuged. All antibodies and beads were diluted in 1× AlphaLISA HiBlock Buffer (PE #AL004C). Biotinylated anti-phospho-EGFR (Y1068) (Cell Signaling #4031) was incubated with the lysate for 1 hour at room temperature at 1 nM final concentration. Goat anti-total EGFR (R&D Systems #AF231) was added and allowed to equilibrate for 1 hour at room temperature at 1 nM final concentration. Then, 10 μl of mixed beads (AlphaScreen Streptavidin Donor Beads (PE #6760002S) and AlphaLISA anti-goat IgG Acceptor Beads (PE #AL107C)) was equilibrated for 1.5 hours before reading on EnVision plate reader using the built-in settings for AlphaScreen.
(§4) Cells untreated (L858R and L858RT790M) or EGF-induced (WT) were set to 100% maximum response. For a negative control, 10 μM HKI-272 was used to normalize data to 0% of maximum response. With these parameters, the IC50's for each compound in each cell line was calculated using non-linear curve fitting analysis.

EGFR (WT) = molecular target: T2, EGFR (WT) (Homo sapiens, UniProt P00533); experiment: as above; type: cell-based; conditions: NIH3T3 cells expressing human EGFR WT; 3 hours compound; induced with 50 ng/ml EGF
T2 construct: host or cells: NIH3T3
T2 sequence (P00533 25-1210): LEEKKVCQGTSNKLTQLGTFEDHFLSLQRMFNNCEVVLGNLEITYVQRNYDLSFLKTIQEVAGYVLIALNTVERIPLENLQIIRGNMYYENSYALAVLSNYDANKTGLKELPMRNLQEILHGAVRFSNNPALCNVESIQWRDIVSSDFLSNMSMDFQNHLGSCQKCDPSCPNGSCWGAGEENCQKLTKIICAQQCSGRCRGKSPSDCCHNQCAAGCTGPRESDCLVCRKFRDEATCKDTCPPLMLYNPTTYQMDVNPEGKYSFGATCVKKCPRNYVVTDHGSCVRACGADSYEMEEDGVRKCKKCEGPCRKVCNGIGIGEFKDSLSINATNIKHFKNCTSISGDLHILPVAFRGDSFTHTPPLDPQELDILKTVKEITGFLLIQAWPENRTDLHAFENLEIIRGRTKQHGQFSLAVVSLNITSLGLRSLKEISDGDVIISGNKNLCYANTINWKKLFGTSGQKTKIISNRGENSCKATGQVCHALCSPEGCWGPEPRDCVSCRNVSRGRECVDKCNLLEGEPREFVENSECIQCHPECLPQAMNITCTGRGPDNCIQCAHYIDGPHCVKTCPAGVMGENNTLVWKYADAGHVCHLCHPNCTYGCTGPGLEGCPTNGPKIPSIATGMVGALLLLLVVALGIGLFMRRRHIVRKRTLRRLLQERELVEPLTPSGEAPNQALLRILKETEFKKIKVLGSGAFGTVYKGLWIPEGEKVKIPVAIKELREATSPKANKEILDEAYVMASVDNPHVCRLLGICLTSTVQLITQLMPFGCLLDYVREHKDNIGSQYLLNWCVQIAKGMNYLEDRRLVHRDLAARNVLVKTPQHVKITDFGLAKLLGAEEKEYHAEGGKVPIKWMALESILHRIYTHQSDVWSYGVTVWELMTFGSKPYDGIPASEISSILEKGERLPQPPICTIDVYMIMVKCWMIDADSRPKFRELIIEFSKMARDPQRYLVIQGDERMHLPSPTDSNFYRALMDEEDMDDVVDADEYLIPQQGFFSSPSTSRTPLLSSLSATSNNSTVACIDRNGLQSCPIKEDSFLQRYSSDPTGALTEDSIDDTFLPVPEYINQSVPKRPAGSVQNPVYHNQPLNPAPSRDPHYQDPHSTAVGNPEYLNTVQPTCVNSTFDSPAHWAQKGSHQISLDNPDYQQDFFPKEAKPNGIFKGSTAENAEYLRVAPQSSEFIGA
Procedure: as §1, §2, §3, §4

EGFR(L858R/T790M) [1] = molecular target: T3, EGFR(L858R/T790M) (Homo sapiens, UniProt P00533, L858R/T790M); experiment: as above; type: cell-based; parameters: host or cells: NIH3T3; conditions: NIH3T3 cells expressing human EGFR L858R/T790M; 3 hours compound
Procedure: as §1, §2, §3, §4
Target sequence in this assay (P00533 25-1210 T790M/L858R): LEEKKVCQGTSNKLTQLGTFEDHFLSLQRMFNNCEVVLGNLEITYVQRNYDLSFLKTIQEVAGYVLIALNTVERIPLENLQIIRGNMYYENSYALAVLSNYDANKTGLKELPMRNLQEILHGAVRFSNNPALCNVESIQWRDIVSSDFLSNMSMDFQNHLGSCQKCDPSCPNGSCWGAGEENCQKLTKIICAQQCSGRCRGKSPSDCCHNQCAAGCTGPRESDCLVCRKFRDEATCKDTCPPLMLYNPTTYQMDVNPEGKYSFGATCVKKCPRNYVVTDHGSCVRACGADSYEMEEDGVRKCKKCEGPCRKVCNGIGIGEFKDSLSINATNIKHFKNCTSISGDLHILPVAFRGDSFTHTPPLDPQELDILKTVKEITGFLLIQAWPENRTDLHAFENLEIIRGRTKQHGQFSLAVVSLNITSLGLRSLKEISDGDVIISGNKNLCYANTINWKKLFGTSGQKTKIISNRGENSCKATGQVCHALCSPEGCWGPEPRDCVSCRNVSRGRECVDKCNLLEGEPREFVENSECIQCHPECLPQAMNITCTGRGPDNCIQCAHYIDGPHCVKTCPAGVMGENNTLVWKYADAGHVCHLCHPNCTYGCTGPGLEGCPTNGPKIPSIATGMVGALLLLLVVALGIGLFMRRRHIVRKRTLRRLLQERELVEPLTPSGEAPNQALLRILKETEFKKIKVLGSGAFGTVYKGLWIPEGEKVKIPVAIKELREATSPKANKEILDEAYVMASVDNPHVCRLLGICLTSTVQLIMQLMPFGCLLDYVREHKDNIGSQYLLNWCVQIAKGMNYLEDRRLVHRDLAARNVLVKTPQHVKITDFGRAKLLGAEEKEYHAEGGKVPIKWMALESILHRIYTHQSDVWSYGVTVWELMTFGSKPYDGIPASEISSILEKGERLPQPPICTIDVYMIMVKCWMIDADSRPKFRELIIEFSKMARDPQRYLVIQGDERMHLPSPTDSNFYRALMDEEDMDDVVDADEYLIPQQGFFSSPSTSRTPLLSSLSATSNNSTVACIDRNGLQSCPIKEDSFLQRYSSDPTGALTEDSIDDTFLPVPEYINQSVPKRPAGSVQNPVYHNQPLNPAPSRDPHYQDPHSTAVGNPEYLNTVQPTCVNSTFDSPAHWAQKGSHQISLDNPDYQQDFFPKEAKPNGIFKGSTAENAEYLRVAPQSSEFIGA

EGFR(L858R/T790M) [2] = molecular target: T3, EGFR(L858R/T790M); experiment: EGFR biochemical assay (HTRF), IC50 determination; parameters: purchased from Carna (GST-a.a. 669-1210); purchased Carna; conditions: 10 μM ATP
Procedure: All EGFR biochemical assays were carried out by HTRF method. The EGFR(L858RT790M) enzyme were purchased from Carna (GST-a.a. 669-1210). The substrate peptide Biotin-TK-peptide was purchased from Cis-Bio. The reaction mixtures contained 1 μM peptide substrate, 10 μM ATP, and 0.036 nM EGFR(L858RT790M) in the reaction buffer (50 mM HEPES pH 7.1, 10 mM MgCl2, 0.01% BSA, 1 mM TCEP and 0.1 mM Na3VO4) at a final volume of 10 μL. All reactions were carried out at room temperature in white ProxiPlate™ 384-well Plus plates (PerkinElmer) and were quenched with 5 μL of 0.2 M EDTA at 60 min Five μL of the detection reagents (2.5 ng PT66K and 0.05 μg SAXL per well) were added, the plates were incubated at room temperature for 1 h and then read in EnVision reader. […] For no-preincubation condition, the compounds were added to the assay solution containing ATP and peptide, and the reaction was initiated by addition of enzyme. For pre-incubation conditions, the compounds were added to the assay solution containing enzyme and peptide, and pre-incubated at room temperature for desired period of time, then the reaction was initiated by addition of ATP.
Target sequence in this assay (P00533 669-1210 T790M/L858R): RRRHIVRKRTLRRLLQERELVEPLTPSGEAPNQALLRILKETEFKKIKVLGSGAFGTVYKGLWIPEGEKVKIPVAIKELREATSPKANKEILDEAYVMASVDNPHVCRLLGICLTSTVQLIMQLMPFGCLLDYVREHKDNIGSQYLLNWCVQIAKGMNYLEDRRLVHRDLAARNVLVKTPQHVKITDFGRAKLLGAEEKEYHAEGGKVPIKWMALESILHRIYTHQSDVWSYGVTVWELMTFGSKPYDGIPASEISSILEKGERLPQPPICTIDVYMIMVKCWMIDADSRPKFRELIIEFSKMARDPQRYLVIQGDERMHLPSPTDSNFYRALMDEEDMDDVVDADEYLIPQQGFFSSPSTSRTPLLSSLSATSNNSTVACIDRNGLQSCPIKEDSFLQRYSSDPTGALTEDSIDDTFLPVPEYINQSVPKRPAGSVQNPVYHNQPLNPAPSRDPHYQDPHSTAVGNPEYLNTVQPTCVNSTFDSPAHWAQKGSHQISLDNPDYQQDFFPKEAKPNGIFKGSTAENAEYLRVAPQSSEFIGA

[3] = EGFR (L858R/T790M) IC50 (μM) 90 min pre-incubation, 90 min pre-incubation
[4] = no pre-incubation, read-out: EGFR (L858R/T790M) IC50 (μM) No pre-incubation

Structure (SMILES) | IC50 (EGFR (L858R)) | IC50 (EGFR (WT)) | IC50 (EGFR(L858R/T790M) [1]) | IC50 (EGFR(L858R/T790M) [2]; [3]) | IC50 (EGFR(L858R/T790M) [2]; [4])
C=CC(=O)Nc1cccc(-n2c(NC(=O)c3cccc(C(F)(F)F)c3)nc3cc(CN4CCOCC4)ccc32)c1 [Example 5-3, N-[5-(morpholin-4-ylmethyl)-1-[3-(prop-2-enamido)phenyl]-1H-1,3-benzodiazol-2-yl]-3-(trifluoromethyl)benzamide] | 0.25 µM | > 10 µM | 0.026 µM | 0.003 µM | 0.072 µM
C=CC(=O)NCCCn1c(NC(=O)c2cccc(C(F)(F)F)c2)nc2cc(C)ccc21 [Example 8-4, N-{5-methyl-1-[3-(prop-2-enamido)propyl]-1H-1,3-benzodiazol-2-yl}-3-(trifluoromethyl)benzamide] | > 10 µM | > 10 µM | 0.83 µM | 0.046 µM | 0.62 µM
